The values below come from patent US20260183311A1, “COMPOUNDS DERIVED FROM STEROLS FOR THE TREATMENT OF A DISEASE ASSOCIATED WITH A MITOCHONDRIAL DEFICIT” (DENDROGENIX, priority 2022, published 2026).

Entries after “also recorded” stand apart in the source; their conditions may differ.

For assay [1], the system named is Neuro-2a cells. Put plainly: Test of metabolic activity (MTT) on Neuro-2a cells after ethanol (EtOH) intoxication. The class given is cell-based, mouse. The settings on record: for metabolic activity after EtOH intoxication relative to untreated cells (MTT): 24 h treatment with 100 nM, EtOH 200 mM and 500 mM, FIG. 2B. The method, then: (§1) A test based on the metabolic activity of the neurons was performed to evaluate the effect of the compounds of formula (I) on this metabolic activity. This test is based on the use of the tetrazolium salt MTT (3-(4,5-dimethylthiazol-2-yl)-2,5-diphenyltetrazolium bromide). Tetrazolium is reduced by mitochondrial succinate dehydrogenase in active live cells to formazan, a purple-colored precipitate. The amount of precipitate formed is proportional to the metabolic activity present in the culture. Thus, spectroscopic assay of the optical density at 550 nm makes it possible to determine the relative amount of metabolic activity and consequently the mitochondrial activity. This test on cortical neuron cultures was performed with different compounds in reference to Table 2 (DX101, DX243, DX244, DX245, DX249, DX301, DX302 and DX401) used at the same concentration (100 nM).
The same test described in Example 1 was performed on Neuro-2a cells—a mouse neuroblastoma cell line. It was shown that 24 h of intoxication with ethanol (EtOH) at high concentration (500 mM) in this cell line reduced the metabolic activity of these cells (χ=P value <0.0001 relative to the control).

Assay [2] deals with Neuro-2a cells. Put plainly: Test of relative metabolic activity (MTT) on Neuro-2a cells under normal conditions. The assay is classed as cell-based, mouse. The settings on record: physiological conditions; 24 h; two concentrations; FIG. 2A. How it is done: as §1
The same test described in Example 1 was performed on Neuro-2a cells—a mouse neuroblastoma cell line. Under physiological conditions, once cultured and at about 50% confluence, Neuro-2a cells were placed in contact for 24 h with two concentrations of the compounds DX243 and DX245.

Assay [3] concerns Neuro-2a cells. The experiment in a line: MitoTracker study of mitochondria in Neuro-2a cells after ethanol intoxication. The class given is cell-based, mouse. The conditions noted are these: after 24 h of ethanol intoxication (500 mm); FIG. 2C.
Assay [4] has as its system dopaminergic neurons. The experiment in a line: Mitochondrial dynamics (mitochondrial mass) in dopaminergic neurons treated with MPP+. The assay is classed as cell-based, rat. The settings on record: MPP+ 48 h; different concentrations during MPP+ and 48 h after removal; FIG. 5. The method, then:
(§2) The mitochondrial effects of compound DX243 were tested in a model of dopaminergic neurons treated with MPP+ (1-methyl-4-phenylpyridinium), a mitochondrial toxin that increases mitochondrial stress and reduces the number of mitochondria. MPP+ is known for its deleterious effects on mitochondria (increased mitochondrial stress measured by the amount of cytochrome C, reduced mitochondrial number measured by means of the Mitotracker test). Dopaminergic neurons were obtained from microdissection of the midbrain of rat embryos cultured with Neurobasal™ Medium (Ref. 21103049 ThermoFisher Scientific) supplemented with B27 supplement 50× (Ref. 17504044 ThermoFisher Scientific), penicillin/streptomycin, L-glutamine and also BDNF (brain-derived neurotrophic factor) and GDNF (glial cell-derived neurotrophic factor).
(§3) These neurons were cultured for 5 days and then treated for 48 h with MPP+. These neurons were also exposed to different concentrations of the compound DX243 during the 48 h of MPP+ treatment, and also 48 h after MPP+ removal.

A further assay relates to C2C12. Put plainly: Test of mitochondrial dynamics (Mitotracker labeling) on C2C12 cell line. The settings on record: 24 h, different concentrations, FIG. 3. The class given is cell-based. The method, then:
(§4) A human neuroblastoma cell line (SHSY5y) and also a myoblast cell line (C2C12) were cultured in DMEM™ medium (Ref. 21068028 ThermoFisher Scientific). Once in culture, these two cell lines were treated for 24 h with different concentrations of the compound DX243. A series of images was taken, labeling with Mitotracker™ (Ref. M7512, ThermoFisher Scientific), which highlights and visualizes the mitochondria present in these cells, and enables quantification of their amount.

For assay [5], the system named is mitochondrial fission gene drp1. Put plainly: Inhibition of mitochondrial fission on cochlear explants (qRT-PCR). The class given is cell-based, mice. The conditions noted are these: 100 nM; 24 h; relative to untreated cochleae; FIG. 4. How it is done:
A cochlear explant model was developed. To obtain cochleae, the organ of hearing, in culture, cochleae from 3-day-old mice were microdissected. These cochleae were then placed in DMEM medium with addition of glucose (0.5%), N1 (0.5%), insulin (0.25%) and penicillin (0.1%), for 24 h. 100 nM of the compound DX243 were then added to this culture medium for 24 h. The cochleae were then recovered and the RNA extracted therefrom, so as to be able to analyze the modulation of several genes following treatment with the compound DX243.
(In general: In qPCR the cycle at which signal appears reflects the starting amount.)

Another assay relates to hippocampal neurons. Put plainly: Mitochondrial stress in hippocampal neurons treated with peptide Aβ 1-42. The settings on record: 1 nM, FIG. 7. The assay is classed as cell-based. The method, then: The mitochondrial effects of compound DX243 were tested in a model of hippocampal neurons treated with peptide Aβ 1-42, this peptide inducing mitochondrial stress (represented by a reduction in mitochondrial surface area).

Assay [6] has as its system dopaminergic neurons. Put plainly: Mitochondrial stress in dopaminergic neurons treated with MPP+. The class given is cell-based, rat. The settings on record: 10 nM; FIG. 6. The method, then: as §2, §3
A further assay concerns SHSY5y. Put plainly: Test of mitochondrial dynamics (Mitotracker labeling) on SHSY5Y cell line. The assay is classed as cell-based, human. The conditions noted are these: 24 h, different concentrations, FIG. 3. How it is done: as §4

With `CC(C)CCCC(C)[C@H]1CCC2C3C[C@@H](NCCCCNCCCN)[C@@]4(O)C[C@@H](O)CC[C@]4(C)C3CC[C@@]21C` (stereo partly drawn) [DX245], the “metabolic activity after EtOH intoxication relative to untreated cells (MTT)” value in the assay on Neuro-2a cells [1] is “significantly greater metabolic activity”. Also, the “metabolic activity of Neuro-2a cells (MTT)” value in the assay on Neuro-2a cells [2] is on record as “increase in the metabolic activity”.
As for `CC(C)CCC[C@@H](C)[C@H]1CC[C@H]2[C@@H]3C[C@@H](NCCCNCCCCN)[C@@]4(O)C[C@@H](O)CC[C@]4(C)[C@H]3CC[C@]12C` [DX243, 5α-hydroxy-6β-[3-(4-aminobutylamino)propylamino]cholestan-3β-ol], the “mitochondrial surface area (MitoTracker)” value in the assay with Neuro-2a cells [3] is given as “increase in mitochondrial surface area”. In addition, in the assay on dopaminergic neurons [4], the mitochondrial mass entry was “increasing and restoring mitochondrial mass”. Moreover, the “mitochondrial amount (mass), Mitotracker labeling” value in the assay on C2C12 and in the assay with SHSY5y was “increase in mitochondrial amount (mass)” in each case. The “metabolic activity after EtOH intoxication (MTT)” value in the assay on Neuro-2a cells [1] (24 h EtOH 500 mM, 24 h treatment with 1 nM) was “partially recovered”. The “metabolic activity after EtOH intoxication relative to untreated cells (MTT)” value in the assay with Neuro-2a cells [1] is “significantly greater metabolic activity”. Besides, the “expression of drp1 mRNA (qRT-PCR)” value in assay [5] is “reduction in drp1 mRNA; also recorded: inhibition of expression”. The mitochondrial surface area entry with hippocampal neurons was “restoring this decrease in mitochondrial surface area”. Moreover, the “mitochondrial stress engendered by MPP+ treatment” value with dopaminergic neurons [6] is on record as “reduction in mitochondrial stress”. For the same molecule, the “metabolic activity of Neuro-2a cells (MTT)” value with Neuro-2a cells [2] is listed as “increase in the metabolic activity”.
